Test results taken from patent publication US20170114128A1, “USE OF TGF-BETA ANTAGONISTS OF TREAT TYPE-2 DIABETES” (ALBERT EINSTEIN COLLEGE OF MEDICINE, INC., priority 2014, published 2017).

Experiments:
[1] = system: normal C57BL/6 mice; experiment: Intra-third ventricle injection of TGF-β1, GTT, ITT, food intake and body weight; assay type: in vivo
Protocol: Brain TGF-β excess impairs glucose tolerance: To study the metabolic effects of brain TGF-β excess, a pharmacological approach was first used by which TGF-β was delivered into the hypothalamic third ventricle of normal C57BL/6 mice via pre-implanted cannula. To optimize the dosage, different doses of TGF-β1 (0, 0.5, 1.0, and 4.0 ng) were injected, and TGF-β1 concentrations measured in the CSF at various time points post-injection. […] Based on this condition, overnight-fasted mice were given intra-third ventricle injections of TGF-β1 in these doses, one injection at night after food was removed, and the second injection in the following morning at 4 hours prior to glucose tolerance test (GTT). […] In sum, a pharmacological induction of brain TGF-β excess can acutely cause pre-diabetic changes including glucose intolerance and insulin resistance.
Animals. Tgfb1^lox/lox mice, Tgfbr2^lox/lox mice, Tgfb1^+/− mice, GFAP-Cre mice, and T1r4^−/− mice on C57BL/6 were obtained from Jackson (32,56-59) and continued to be maintained on C57BL/6. CMV-lox-stop-lox-Tgfb1 mice(30) obtained from Jackson were backcrossed into C57BL/6. POMC-Cre mice maintained on C57BL/6 were used in our previous research (20,60). All mice were housed in standard, pathogen-free animal facility with 12 h/12 h light and darkness cycles, and adult male mice were used in experiments of this work. Mice were maintained on normal chow since weaning, and for some experiments involving HFD feeding, a HFD (45% kcal fat, Research Diets, Inc.) was used when mice were two to three months old. Food intake and body weight of mice were measured using a laboratory scale. GTT was performed in mice through intraperitoneal (i.p.) injection of glucose at 2 g/kg body weight. ITT was performed in mice through i.p. injection of human recombinant insulin (Nova Nordisk) at the dose of 0.7 U/kg body weight. Blood glucose levels during GTT and ITT were measured with LifeScan® blood glucose monitoring system. All procedures were approved by the Institutional Animal Care and Use Committee of Albert Einstein College of Medicine.
Brain injection. […]

[2] = system: hypothalamic GT1-7 cells; experiment: IκBα mRNA levels in GT1-7 cells after TGF-β1 treatment; assay type: cell-based; settings: GT1-7 cells, TGF-β1 10 ng/ml
Excerpt: (§1) TGF-β degrades IκBα mRNA to atypically activate NF-κB: RNA SGs/PBs have the function to degrade mRNAs by targeting the AU-rich element (AUE) at the 3′ untranslated region (UTR) (36-38). […] This information led to the suspicion that TGF-β could work to degrade IκBα mRNA. […] To test if TGF-β induced IκBα mRNA decay is accountable for the glucose metabolism disorder, an experiment was designed to study if the pro-diabetic effect of brain TGF-β excess could be reversed through directly increasing hypothalamic IκBα mRNA. Using an approach which was established previously (23), a lentiviral system was employed to deliver exogenous Iκbα mRNA into the mediobasal hypothalamus of chow-fed C57BL/6 mice, and indeed, this lentivirus-delivered Iκbα mRNA prevented TGF-β1 injection from activating hypothalamic NF-κB (FIG. 5f). Metabolic analysis confirmed that this treatment attenuated the effect of TGF-β1 from impairing insulin-dependent glucose control (FIG. 5g).
Cell culture. GT1-7 cells were cultured as described previously (14). Briefly, GT1-7 cells were maintained in Dulbecco's Modified Eagle's Medium (Invitrogen) with 10% fetal bovine serum (Hyclone) and penicillin/streptomycin (Invitrogen), at 37° C. in a humidified atmosphere containing 5% CO2. Cells were fasted in serum-free medium for an overnight period, and then were subjected to TGF-β1 treatment at the indicated dose and time course.

[3] = system: HEK 293 cells; experiment: IκBα mRNA levels in HEK 293 cells after TGF-β1 treatment; assay type: cell-based; settings: HEK 293 cells (data not shown)
Excerpt: as §1

[4] = system: Myd88 knockout mice; experiment: Third-ventricle TGF-β1 delivery in Myd88 knockout mice; assay type: in vivo; settings: hypothalamic third ventricle; data not shown
Excerpt: To further assess this point, it was asked if the effects of brain TGF-β excess could be impaired by ablation of a signaling component, such as toll-like receptor-4 (TLR4) or myeloid differentiation primary response gene 88 (MyD88), because they employ kinase signaling to induce IκBα phosphorylation and thus NF-κB activation. Using a genetic model, T1r4 knockout (T1r4−/−) mice, TGF-β1 or vehicle was delivered into the hypothalamic third ventricle of these mice and littermate WT mice via pre-implanted cannula. Vehicle-injected T1r4−/− mice and WT mice were both normal in glucose and insulin tolerance tests (FIG. 4a, b). […] Altogether, brain TGF-β excess may use a mechanism that directly targets IκBα rather than upstream kinase signaling to activate hypothalamic NF-κB.

TGF-β1: transforming growth factor-β1 (Sigma), cytokine dissolved in artificial cerebrospinal fluid for third-ventricle injection
glucose intolerance effect, comparison of doses ([1]; 4 ng): slightly strongest
sensitivity of insulin in lowing blood glucose (ITT) ([1]; 4 ng, third ventricle): significantly dampened
glucose tolerance in GTT ([1]; each dose (0.5, 1.0, 4.0 ng), two intra-third ventricle injections, overnight-fasted): led to glucose intolerance
IκBα mRNA levels [2]: notably decreased
IκBα mRNA levels [3]: notably decreased
effect of lack of Myd88 on glucose or insulin intolerance following TGF-β1 delivery [4]: did not lead to a significant reduction
